26 compounds from ChEMBL document CHEMBL4177537, “Identification of a new class of potent Cdc7 inhibitors designed by putative pharmacophore model: Synthesis and biological evaluation of 2,3-dihydrothieno[3,2-d]pyrimidin-4(1H)-ones” (Bioorg Med Chem, 2017) can be followed below.

Data set [1] deals with Rho-associated protein kinase 1 (Homo sapiens, UniProt Q13464). The data set is described as follows: Inhibition of recombinant human N-terminal GST-tagged ROCK1 (1 to 477 residues) expressed in baculovirus expression system using biotin-STK substrate-2 as substrate preincubated for 5 mins followed by ATP addition after 2 hrs by TR-FRET assay.
In data set [2] the target is CDC7/DBF4 (Cell division cycle 7-related protein kinase/Activator of S phase kinase) (Homo sapiens, UniProt O00311). Briefly: Inhibition of recombinant human Cdc7 (1 to 574 residues)/human N-terminal GST-tagged DBF4 (1 to 674 residues) expressed in baculovirus expression system using His-tagged MCM2 as substrate preincubated for 10 mins followed by ATP addition by HTRF assay.

Data set [3] deals with Cyclin-dependent kinase 2/cyclin E1 (Homo sapiens, UniProt P24941). Briefly: Inhibition of recombinant human Cdk2 (1 to 298 residues)/human N-terminal GST-tagged cyclinE (1 to 410 residues) expressed in baculovirus expression system using histone H1 as substrate after 90 mins in presence of ATP by kinase-glo assay.
Data set [4] is described as follows: Solubility of the compound. It counts as physicochemical.
The target of data set [5] is Cell division cycle 7-related protein kinase (Homo sapiens, UniProt O00311). Briefly: Inhibition of Cdc7 in human HeLa cells assessed as reduction in MCM2 phosphorylation at ser40 residues after 7 hrs by Western blot analysis. Format: cell-based. In general terms: In western blotting, separated proteins are transferred to a membrane and probed.
Another data set deals with COLO 205. Briefly: Cytotoxicity against human COLO205 cells after 3 days by CellTiter-Glo luminescent cell viability assay. It counts as functional, cell-based. To be noted: COLO 205, 72 h. (In general: ATP-based viability assays read luminescence as a measure of living cells.)

What is called IC50 is the concentration at which inhibition is half-maximal. Take `O=C1NC2(CCCCCC2)Nc2cc(-c3ccncc3)sc21`: the values for the IC50 in data set [1], in data set [2] and in data set [3] were 0.037 µM, 0.0036 µM and 2.3 µM, respectively.
For the compound `CCCC1(C)NC(=O)c2sc(-c3ccncc3)cc2N1` (stereo not given), the IC50 came to 0.033 µM in data set [1], 0.0063 µM in data set [2] and 2 µM in data set [3].
By EC50 is commonly meant the midpoint of the concentration-response curve. A lower EC50 goes with an effect from little substance. In the case of `Cc1n[nH]cc1-c1cc2c(s1)C(=O)NC(C)(CC(F)(F)F)N2C` (stereo not given), the solubility entry in data set [4] is “Soluble”. For the same compound, the IC50 in data set [5] turned out to be 0.21 µM; in data set [1], 0.022 µM; in data set [2] it was 0.001 µM; in data set [3], 0.42 µM. In the data set with COLO 205, this compound registered an EC50 of 0.33 µM.
As to `CC(C)C1(C)NC(=O)c2sc(-c3ccncc3)cc2N1` (stereo not given), the IC50 in data set [1] turned out to be 0.035 µM; in data set [2], 0.0082 µM; in data set [3] it was 1.4 µM.
`Cc1n[nH]cc1-c1cc2c(s1)C(=O)NC1(CCCCC1)N2`: the solubility result in data set [4] is listed as “Soluble”. Further, the IC50 in data set [5] worked out at 0.29 µM; in data set [1] it was 0.048 µM; in data set [2], 0.0015 µM; in data set [3], 1.3 µM. This compound also returned an EC50 in the data set with COLO 205 of 0.47 µM.
`CN1c2cc(-c3ccncc3)sc2C(=O)NC1(C)C`: the IC50 in data set [1] is 0.14 µM; in data set [2], 0.0099 µM; in data set [3] it was 2.1 µM.
With `O=C1NC2(CCCC2)Nc2cc(-c3ccncc3)sc21`, the results for the IC50 in data set [1], in data set [2] and in data set [3] were 0.1 µM, 0.0082 µM and 4.9 µM, respectively.
Turning to `CCC1(C)NC(=O)c2sc(-c3ccncc3)cc2N1` (stereo not given), the IC50 is 0.036 µM in data set [1], 0.0075 µM in data set [2] and 2 µM in data set [3].
On the same counts, the results for `Cc1n[nH]cc1-c1cc2c(s1)C(=O)NC(C)(C)N2C` are 0.054 µM, 0.0029 µM and 0.26 µM.
On the same counts, the results for `CCc1n[nH]cc1-c1cc2c(s1)C(=O)NC(C)(C)N2C` are 0.35 µM, 0.013 µM and 0.36 µM.
On the same counts, the results for `Cc1n[nH]c(C)c1-c1cc2c(s1)C(=O)NC(C)(C)N2C` are 2.1 µM, 0.29 µM and 1.1 µM.
Regarding `CC1(CC(F)(F)F)NC(=O)c2sc(-c3ccncc3)cc2N1` (stereo not given), the values for the IC50 in data set [1], in data set [2] and in data set [3] were 0.031 µM, 0.0027 µM and 1.2 µM, respectively.
Take `CN1c2c(sc(-c3cn[nH]c3)c2Br)C(=O)NC1(C)C`: the results for the IC50 in data set [1], in data set [2] and in data set [3] were 0.022 µM, 0.0095 µM and 0.026 µM, respectively.
In the case of `O=C1NC2(CCCCC2)Nc2cc(-c3ccncc3)sc21`, the figures for the IC50 in data set [1], in data set [2] and in data set [3] were 0.053 µM, 0.003 µM and 2 µM, respectively.
On the same counts, the results for `CC1(C)Nc2cc(-c3ccncc3)sc2C(=O)N1Cc1ccccc1` are 0.0015 µM, greater than 10 µM and 0.65 µM.
With `CN1C(=O)c2sc(-c3ccncc3)cc2NC1(C)C`, the IC50 in data set [1] is 0.24 µM; in data set [2], 0.45 µM; in data set [3], greater than 10 µM.
For `CN1c2cc(-c3cn[nH]c3)sc2C(=O)NC1(C)C`, the IC50 in data set [1] is 0.13 µM; in data set [2], 0.0084 µM; in data set [3] it was 0.16 µM.
`CC1(C)NC(=O)c2cc(-c3ccncc3)sc2N1`: the values for the IC50 in data set [1] and in data set [2] were 0.1 µM and 0.14 µM, respectively.
Turning to `O=c1[nH]c(=O)c2sc(-c3ccncc3)cc2[nH]1`, in data set [2], the IC50 was 0.69 µM.
Take `Cc1c(-c2cn[nH]c2)sc2c1N(C)C(C)(C)NC2=O`: the IC50 in data set [1] is 0.044 µM; in data set [2], 0.014 µM; in data set [3] it was 0.026 µM.
Consider `Cc1n[nH]cc1-c1cc2c(s1)C(=O)N[C@]1(CC[C@](O)(c3ccc(F)cc3)CC1)N2`, for which, in data set [4], the solubility result is on record as “Soluble”. Moreover, the IC50 in data set [5] was greater than 1 µM; in data set [1], 0.82 µM; in data set [2], 0.0012 µM; in data set [3] it was 0.96 µM. Also, the EC50 in the data set with COLO 205 was 4.5 µM.
Turning to `CC1(C)NC(=O)c2sc(-c3ccncc3)cc2N1`, the IC50 was 0.09 µM in data set [1], 0.026 µM in data set [2] and 3.2 µM in data set [3].
For the compound `Cc1n[nH]cc1-c1cc2c(s1)C(=O)N[C@]1(CC[C@@](O)(C3CCCCC3)CC1)N2`, the results for the IC50 in data set [1], in data set [2] and in data set [3] were 0.35 µM, 0.38 µM and greater than 10 µM, respectively.
For the compound `Cc1n[nH]cc1-c1cc2c(s1)C(=O)N[C@]1(CC[C@@](O)(c3ccc(F)cc3)CC1)N2`, the 50% inhibitory concentration (IC50) was 0.13 µM in data set [1], 0.17 µM in data set [2] and greater than 10 µM in data set [3].
Turning to `NC(=O)c1sc(-c2ccncc2)cc1N`, the IC50 in data set [2] amounted to 1.2 µM.
`Cc1n[nH]cc1-c1cc2c(s1)C(=O)N[C@]1(CC[C@](O)(C3CCCCC3)CC1)N2`: the solubility entry in data set [4] is recorded as “Soluble”. Moreover, the 50% inhibitory concentration (IC50) in data set [5] is greater than 1 µM; in data set [1], 2.9 µM; in data set [2] it was 0.002 µM; in data set [3], 2.2 µM. This compound showed an EC50 in the data set on COLO 205 of 6.2 µM.
